Source: patent publication US11653649B2, “Antimicrobial composition including a dihydroxamic acid and methods of inhibiting microbial growth utilizing the same” (Kimberly-Clark Worldwide, Inc., priority 2017, dated 2023)
Marks after values point to notes of the source that are not given here.

What was measured:
[1] = tested on: Aspergillus brasiliensis (ATCC 16404); experiment: Anti-fungal MIC, microbroth dilution; assay type: cell-based; settings: pH 4.5, RPMI-1640, 35° C., 48 hours
Protocol: (§1) Method: Microbroth Dilution Method (96-well format).
(§2) Solvent: Sterile MilliQ water and 0.1 M Citrate Buffer pH 4.5
(§3) Media used: • Bacterial: Cation-Adjusted Mueller-Hinton Broth (CAMHB) • Fungi: RPMI-1640
(§4) Fungi: • Incubation Temperature: • 25° C. (Candida albicans) • 35° C. […] . All solubilized and pH 4.5-adjusted test compounds were filter-sterilized before subjecting to MIC study. Positive control was also dissolved in the similar way. […] All the strains were inoculated on their respective agar medium and incubated under conditions/durations detailed above. • Preparation of inoculum: • The bacterial colony suspension in 0.85% saline was adjusted to 1 McFarland's standard using Densimat which was further diluted to 1:100 in CAMHB. The fungal suspension for inoculation was prepared in 0.85% saline from 6 days old culture (for mold, A. brasiliensis) and from 2 days old culture (for yeast, C. albicans) from Sabouraud Dextrose agar medium. Culture was scrapped/scooped from the plate, suspended in saline and the spores/cells counted using haemocytometer to provide a final inoculum of 5×10^4 cfu/mL. • 96-well Plate Preparation: • Minimum inhibitory concentration (MIC) is performed to determine potency of test compounds along with standard antibiotics against bacterial strains. Micro titer plates were prepared as per the CLSI recommendations. One hundred and seventy five microliters of Cation-adjusted Muller Hinton Broth (CAMHB) was added to the first column of a 96 well flat bottom plate, which is the media control. Second column is for the stocks of the test compounds and reference standards from which dilutions are made. Then 175 μL of CAMHB was added to the 5th, 8th and 11th columns, 75 μL of CAMHB to the 4th, 7th and 10th columns and 50 μL of CAMHB to the 3rd, 6th and 9th columns and the last column was the organism control. Antimicrobial Efficacy Testing

[2] = tested on: Candida albicans (ATCC 10231); experiment: Anti-fungal MIC, microbroth dilution; assay type: cell-based; settings: pH 4.5, RPMI-1640, 25° C., 48 hours
Protocol: as §1, §2, §3, §4

[3] = tested on: Escherichia coli (ATCC 8739); experiment: Anti-bacterial MIC, microbroth dilution; assay type: cell-based; settings: pH 4.5, CAMHB, 37° C., 24 hours
Protocol: as §1, §2, §3
(§5) Bacteria • Incubation Temperature: 37° C. • Incubation Time: 24 hours • Inoculum Size: 5×10(5) cfu/mL • Strains: • Staphylococcus aureus (ATCC 6538) • Escherichia coli (ATCC 8739) • Pseudomonas aeruginosa (ATCC 9027) • Burkholderia cepacia (ATCC 25416)
as §4

[4] = tested on: Pseudomonas aeruginosa (ATCC 9027); experiment: Anti-bacterial MIC, microbroth dilution; assay type: cell-based; settings: for MIC v. P. aeruginosa: Tables 4 and 5, rounded values, wt %; for MIC (%) P. aeruginosa: pH 4.5, CAMHB, 37° C., 24 hours
Protocol: as §1, §2, §3, §5, §4

[5] = tested on: Burkholderia cepacia (ATCC 25416); experiment: Anti-bacterial MIC, microbroth dilution; assay type: cell-based; settings: pH 4.5, CAMHB, 37° C., 24 hours
Protocol: as §1, §2, §3, §5, §4

[6] = tested on: Staphylococcus aureus (ATCC 6538); experiment: Anti-bacterial MIC, microbroth dilution; assay type: cell-based; settings: pH 4.5, CAMHB, 37° C., 24 hours
Protocol: as §1, §2, §3, §5, §4

[7] = Determination of Aqueous Solubility (pH-4.5) by Miniaturized Shake Flask Method; assay type: physicochemical; settings: ultrapure water pH 4.5, 22° C., highest test concentration 1% w/v
Protocol: Determination of Aqueous Solubility (pH-4.5) by Miniaturized Shake Flask Method
Test Media: Ultrapure water (pH-4.5) (18MΩDl water)
Test Concentration: 10 mg/ml
Incubation Details: 22° C. +/−3° C.
Method of Analysis: Photometric analysis using Microplate reader
Data Output: Aqueous Solubility
Required volume of ultrapure water (˜75 mL) was taken and pH was adjusted to 4.5 using citrate buffer (pH-4.5). This water was used as a test media for determining the solubility of test/reference items.
Solubility Testing by Shake Flask Method
The solubility of test items were determined at a highest test concentration of 1% w/v (10 mg/mL).
40 mg of test items were weighed into tubes.
4 mL of Ultrapure water was added to all tubes to get a concentration of 10 mg/mL (1% w/v).
The initial pH of the solubility samples were recorded. […] Then, the solution were observed visually for any precipitation.
The visually soluble samples were centrifuged at 10000 rpm for 10 minutes at room temperature (22° C.±3° C.).
An aliquot of the supernatant were diluted with equal volume of methanol. The samples were further diluted in methanol: water (50:50) to obtain dilution of 1:2, 1:4, 1:16, 1:32 etc.
The samples were then transferred to UV plate and scanned at Amax of that particular test/reference item.

[8] = tested on: various bacteria and fungi; experiment: Antimicrobial Efficacy Testing (USP 51), overall outcome; assay type: cell-based; settings: USP 51, 28 days
Description: The Antimicrobial Efficacy Testing discussed herein was completed pursuant to the standard antimicrobial effectiveness test from Chapter 51 of the United States Pharmacopeia (USP 51), in which an antimicrobial composition can be tested against at least five microorganisms, including bacteria and fungi. In the Antimicrobial Efficacy Testing conducted herein, the following bacteria were utilized: Staphylococcus aureus, Escherichia coli, Pseudomonas aeruginosa, and Burkholderia cepacia; and the following fungi were utilized: Candida albicans, and Aspergillus brasiliensis. While one of ordinary skill in the art could replicate such Antimicrobial Efficacy Testing by completing USP 51 protocol, a brief summary was that each antimicrobial composition sample was tested against each microorganism being held at room temperature over the course of 28 days, with each sample being evaluated at specific intervals at the beginning of the Testing (initial), day 7, day 14, and day 28. The test sample colonies were counted at each interval to determine the number of surviving microorganisms. The log reduction of each microorganism at each interval was reported. The effectiveness of the antimicrobial agent sample was based on the USP 51 passing criteria.

Compound | MIC (%) A. brasiliensis [1] | MIC (%) C. albicans [2] | MIC (%) E. coli [3] | MIC v. P. aeruginosa [4] | MIC (%) P. aeruginosa [4] | MIC (%) B. cepacia [5] | MIC (%) S. Aureus [6] | Solubility (wt %) [7] [wt %] | Antimicrobial Efficacy Testing outcome (inhibiting growth of various bacteria and fungi) [8]
CCCCCCCCCC(=O)NO [Compound No. 3, Decylhydroxamic Acid] | >0.00125* % | >0.00125* % | >0.00125* % | >0.00125%* | >0.00125* % | >0.00125* % | >0.00125* % | 0.0025 | 
O=C(NCO)N(CO)C1(CO)C(=O)NC(=O)N1CO (stereo not shown) [Diazolidinyl Urea, reference compound] |  |  |  | 0.10% |  |  |  |  | 
OCCc1ccccc1 [Phenethyl Alcohol, reference compound] |  |  |  | 0.41% |  |  |  |  | 
CC(=O)C1C(=O)C=C(C)OC1=O (stereo not shown) [Dehydroacetic Acid, reference compound] |  |  |  | 2.00% |  |  |  |  | 
CCCCCCCCCCCC(=O)NO [compound 2, Laurylhydroxamic Acid] | >0.0011* % | >0.0011* % | >0.0011* % |  | >0.0011* % | >0.0011* % | >0.0011* % | 0.0022 | 
CCCCCC(=O)NO [Compound No. 1, Hexylhydroxamic Acid] | 0.008% | 0.031% | 0.125% | 0.06% | 0.0625% | 0.0625% | 0.25% | >1.00 | 
OCc1ccccc1 [Benzyl Alcohol, reference compound] |  |  |  | 0.35% |  |  |  |  | 
O=[N+]([O-])C(Br)(CO)CO [2-Bromo-2-Nitropropane-1,3-Diol, reference compound] |  |  |  | 0.00% |  |  |  |  | 
Cn1sccc1=O [Methylisothiazolinone, reference compound] |  |  |  | 0.00% |  |  |  |  | 
O=C(CCC(=O)NO)NO [Compound No. 8, N, N′-dihydroxysuccinamide] | 0.031% | 0.25% | 0.031% | 0.06% | 0.0625% | 0.031% | 0.016% | >1.00 | 
CCCCCCCC(=O)NO [Caprylhydroxamic Acid, reference compound] | 0.004% | 0.008% | 0.017% | 0.07% | 0.0679% | 0.017% | 0.034% | 0.1358 | 
O=C(NO)c1ccc(O)cc1 [Compound No. 6, p-hydroxy Benzhydroxamic Acid] | 0.25% | >1.00* % | 0.0625% | 0.06% | 0.0625% | 0.031% | 0.125% | >1.00 | 
O=C(O)c1ccccc1 [Benzoic Acid, reference compound] |  |  |  | 0.07% |  |  |  |  | 
Propylhydroxamic Acid [reference compound] |  |  |  | 0.50% |  |  |  |  | 
COC(=O)c1ccc(O)cc1 [Methylparaben, reference compound] |  |  |  | 0.20% |  |  |  |  | 
O=C(NO)c1ccccc1 [Compound No. 5, Benzhydroxamic Acid] | 0.016% | 0.031% | 0.25% | 0.06% | 0.0625% | 0.125% | 0.125% | >1.00 | 
CC1(C)C(=O)N(CO)C(=O)N1CO [DMDM Hydantoin, reference compound] |  |  |  | 0.02% |  |  |  |  | 
O=C(CCCCCCC(=O)NO)NO [Compound No. 9, N, N′-dihydroxyoctanediamide] | >0.124* % | >0.124* % | >0.124* % | >0.12%* | >0.124* % | >0.124* % | >0.124* % | 0.248 | did not pass
O=C(CC(O)C(=O)NO)NO (stereo not shown) [Compound No. 7, N, N′, 2-trihydroxy butane diamide] | 0.008% | 0.008% | 0.016% | 0.03% | 0.031% | 0.016% | 0.008% | >1.00 | 
